Test results as given in US20120010075A1 (priority 2009, published 2012).
Like-named read-outs stand apart in the source and are kept apart here.

Columns and labels:
Phytophthora infestans [1] = type: in vivo, Phytophthora infestans on tomato; settings: hydrazone 50 ppm + 50 μM CuCl2.2H2O, applied 24 h before inoculation, assessed 7 days after inoculation, tomato
Phytophthora capsici [2] = test: In vitro fungitoxicity of hydrazones with and without copper towards Phytophthora capsici (Example 28, Table 3); type: cell-based; settings: 0.050 μg/mL, 48 h
[3] = tested on: Septoria tritici isolate USA-184; test: In vitro fungitoxicity of hydrazones with and without copper towards Septoria tritici (Example 30, Table 5); type: cell-based; settings: Zymoseptoria tritici, 0.05 μg/mL
[4] = tested on: Leptosphaeria nodorum (glume blotch of wheat); test: Cu-hydrazone complexes versus parent hydrazones against glume blotch of wheat (Example 32, Table 8); type: in vivo, Leptosphaeria nodorum on wheat (cultivar Yuma); settings: Parastagonospora nodorum, 200 ppm spray, inoculated after 24 h
[5] = tested on: Leptosphaeria nodorum (LEPTNO); test: Fungitoxicity of copper-hydrazone mixtures of different ratios towards Leptosphaeria nodorum (Example 35, Table 11); type: cell-based; settings: Parastagonospora nodorum
Protocol: In vitro fungitoxicity assays against LEPTNO were conducted using the copper-minus medium described in Example 26. Mixtures containing hydrazone compound 16 at 200 nM and CuCl2 at 0.2 μM (1:1 molar ratio), 0.8 μM (1:4 ratio), 12.5 μM (1:62.5 ratio) and 200 μM (1:1000 ratio) were prepared in copper-minus medium. Two-fold dilution series of these mixtures were then prepared in 100 μL aliquots of copper-minus medium in flat-bottomed 96-well microtiter plates. A suspension of LEPTNO spores in copper-minus medium at 2×10^5 spores per mL was prepared as in Example 26. Microtiter plates were inoculated with 100 μL of the spore suspension and the plates were incubated at 25° C. for 72 h before assessing fungal growth by measuring light scattering in a NepheloStar plate reader.
(§1) Growth inhibition was determined by comparing growth in the presence of copper-hydrazone mixture with growth in control wells lacking the copper-hydrazone mixture. EC50 values were calculated from dose-response curves, and are expressed as the amounts of hydrazone or copper in each test mixture at the rates providing 50% inhibition of growth as compared to a control lacking the copper-hydrazone mixture.

Phytophthora capsici [6] = test: Fungitoxicity of copper-hydrazone mixtures of different ratios towards Phytophthora capsici (Example 36, Table 12); type: cell-based; settings: Phytophthora capsici
Protocol: In vitro fungitoxicity assays against Phytophthora capsici were conducted using the copper-minus AS medium described in Example 28. Mixtures containing hydrazone compound 16 at 200 nM and CuCl2.2H2O at 0.2 μM (1:1 molar ratio), 0.8 μM (1:4 ratio), 3.2 μM (1:16 ratio), 12.5 μM (1:62.5 ratio), 50 μM (1:200 ratio) and 200 μM (1:1000 ratio) were prepared in copper-minus AS medium. Two-fold dilution series of these mixtures were then prepared in 100 μL aliquots of copper-minus AS medium in flat-bottomed 96-well microtiter plates. A suspension of P. capsici zoospores in Chelex-treated water at 5×10^4 spores per mL was prepared as in Example 28. Microtiter plates were inoculated with 100 μL of the spore suspension and incubated at 25° C. for 48 h before assessing fungal growth by measuring light scattering in a NepheloStar plate reader.
as §1

Phytophthora infestans [7] = type: in vivo, Phytophthora infestans on tomato (Outdoor Girl)
[8] = Hydrazone without CuCl2, read-out: Hydrazone EC50
[9] = Hydrazone:Cu ratio 1 to 1, read-out: Hydrazone EC50 (amount of hydrazone in mixture at EC50)
[10] = Hydrazone:Cu ratio 1 to 4, read-out: Hydrazone EC50 (amount of hydrazone in mixture at EC50)
[11] = Hydrazone:Cu ratio 1 to 62.5, read-out: Hydrazone EC50 (amount of hydrazone in mixture at EC50)
[12] = Hydrazone:Cu ratio 1 to 1000, read-out: Hydrazone EC50 (amount of hydrazone in mixture at EC50)

O=C(N/N=C/c1cc(Cl)cc(Cl)c1O)c1ccccc1 [Example 16]
TLB % Control (Phytophthora infestans [1]): 94.0% | % Inhn Plus copper Observed (Phytophthora capsici [2]; copper-plus AS medium (CuCl2, 50 μM)): 91.9% | inhibition of growth at 0.05 µg/mL (Phytophthora capsici [2]; Phytophthora capsici, copper-minus AS medium, read-out: % Inhn Minus copper Observed): 0% | inhibition at 0.05 µg/mL ([3]; Colby formula, CuCl2, read-out: % Inhibition Plus copper Predicted): 35.8% | inhibition at 0.05 µg/mL ([3]; copper-minus medium, 90 h, read-out: % Inhibition Minus copper Observed): 35.8% | inhibition at 0.05 µg/mL ([3]; copper-plus medium CuCl2, 90 h, read-out: % Inhibition Plus copper Observed): 93.6% | pest or weed control at 200 ppm [4]: 41% | EC50 [5, 8]: > 3200 nM | EC50 [5, 9]: 72.2 nM | EC50 [5, 10]: 43 nM | EC50 [5, 11]: 28.4 nM | EC50 [5, 12]: 14 nM | EC50 (Phytophthora capsici [6]; [8]): 143 nM | EC50 (Phytophthora capsici [6]; [9]): 71.1 nM | EC50 (Phytophthora capsici [6]; [10]): 47.1 nM | EC50 (Phytophthora capsici [6]; Hydrazone:Cu ratio 1 to 16, read-out: Hydrazone EC50 (amount of hydrazone in mixture at EC50)): 27.5 nM | EC50 (Phytophthora capsici [6]; [11]): 16.6 nM | EC50 (Phytophthora capsici [6]; Hydrazone:Cu ratio 1 to 250, read-out: Hydrazone EC50 (amount of hydrazone in mixture at EC50)): 7.6 nM | EC50 (Phytophthora capsici [6]; [12]): 4.6 nM | % Control of Tomato Late Blight (Phytophthora infestans [7]; hydrazone 10 μM + CuCl2 10 μM): 33.5% | % Control of Tomato Late Blight, predicted (in brackets, Colby) (Phytophthora infestans [7]; hydrazone 10 μM + CuCl2 10 μM): 3.1% | % Control of Tomato Late Blight (Phytophthora infestans [7]; hydrazone 10 μM + CuCl2 50 μM): 39.7% | % Control of Tomato Late Blight, predicted (in brackets, Colby) (Phytophthora infestans [7]; hydrazone 10 μM + CuCl2 50 μM): 9.9% | % Control of Tomato Late Blight (Phytophthora infestans [7]; hydrazone 10 μM + CuCl2 200 μM): 69.0% | % Control of Tomato Late Blight, predicted (in brackets, Colby) (Phytophthora infestans [7]; hydrazone 10 μM + CuCl2 200 μM): 39.2% | % Control of Tomato Late Blight (Phytophthora infestans [7]; hydrazone 10 μM + CuCl2 400 μM): 75.7% | % Control of Tomato Late Blight, predicted (in brackets, Colby) (Phytophthora infestans [7]; hydrazone 10 μM + CuCl2 400 μM): 56.6% | % Control of Tomato Late Blight (Phytophthora infestans [7]; hydrazone 10 μM + CuCl2 800 μM): 94.2% | % Control of Tomato Late Blight, predicted (in brackets, Colby) (Phytophthora infestans [7]; hydrazone 10 μM + CuCl2 800 μM): 70.7% | % Control of Tomato Late Blight (Phytophthora infestans [7]; hydrazone 10 μM + CuSO4 10 μM): 26.3% | % Control of Tomato Late Blight, predicted (in brackets, Colby) (Phytophthora infestans [7]; hydrazone 10 μM + CuSO4 10 μM): 3.1% | % Control of Tomato Late Blight (Phytophthora infestans [7]; hydrazone 10 μM + CuSO4 50 μM): 28.1% | % Control of Tomato Late Blight, predicted (in brackets, Colby) (Phytophthora infestans [7]; hydrazone 10 μM + CuSO4 50 μM): 6.2% | % Control of Tomato Late Blight (Phytophthora infestans [7]; hydrazone 10 μM + CuSO4 200 μM): 56.0% | % Control of Tomato Late Blight, predicted (in brackets, Colby) (Phytophthora infestans [7]; hydrazone 10 μM + CuSO4 200 μM): 50.4% | % Control of Tomato Late Blight (Phytophthora infestans [7]; hydrazone 10 μM + CuSO4 400 μM): 77.3% | % Control of Tomato Late Blight, predicted (in brackets, Colby) (Phytophthora infestans [7]; hydrazone 10 μM + CuSO4 400 μM): 76.4% | % Control of Tomato Late Blight (Phytophthora infestans [7]; hydrazone 10 μM + CuSO4 800 μM): 72.2% | % Control of Tomato Late Blight, predicted (in brackets, Colby) (Phytophthora infestans [7]; hydrazone 10 μM + CuSO4 800 μM): 83.1% | % Control of Tomato Late Blight (Phytophthora infestans [7]; hydrazone 10 μM alone, no copper): 1.5% | % Control of Tomato Late Blight (Phytophthora infestans [7]; hydrazone 50 μM + CuCl2 10 μM): 41.9% | % Control of Tomato Late Blight, predicted (in brackets, Colby) (Phytophthora infestans [7]; hydrazone 50 μM + CuCl2 10 μM): 12.8% | % Control of Tomato Late Blight (Phytophthora infestans [7]; hydrazone 50 μM + CuCl2 50 μM): 63.0% | % Control of Tomato Late Blight, predicted (in brackets, Colby) (Phytophthora infestans [7]; hydrazone 50 μM + CuCl2 50 μM): 18.8% | % Control of Tomato Late Blight (Phytophthora infestans [7]; hydrazone 50 μM + CuCl2 200 μM): 91.5% | % Control of Tomato Late Blight, predicted (in brackets, Colby) (Phytophthora infestans [7]; hydrazone 50 μM + CuCl2 200 μM): 45.2% | % Control of Tomato Late Blight (Phytophthora infestans [7]; hydrazone 50 μM + CuCl2 400 μM): 91.7% | % Control of Tomato Late Blight, predicted (in brackets, Colby) (Phytophthora infestans [7]; hydrazone 50 μM + CuCl2 400 μM): 60.9% | % Control of Tomato Late Blight (Phytophthora infestans [7]; hydrazone 50 μM + CuCl2 800 μM): 98.3% | % Control of Tomato Late Blight, predicted (in brackets, Colby) (Phytophthora infestans [7]; hydrazone 50 μM + CuCl2 800 μM): 73.6% | % Control of Tomato Late Blight (Phytophthora infestans [7]; hydrazone 50 μM + CuSO4 10 μM): 56.8%
